Test [1] deals with T1, Peroxisome proliferator-activated receptor delta (Homo sapiens, UniProt Q03181).
T1 sequence (Q03181 whole entry): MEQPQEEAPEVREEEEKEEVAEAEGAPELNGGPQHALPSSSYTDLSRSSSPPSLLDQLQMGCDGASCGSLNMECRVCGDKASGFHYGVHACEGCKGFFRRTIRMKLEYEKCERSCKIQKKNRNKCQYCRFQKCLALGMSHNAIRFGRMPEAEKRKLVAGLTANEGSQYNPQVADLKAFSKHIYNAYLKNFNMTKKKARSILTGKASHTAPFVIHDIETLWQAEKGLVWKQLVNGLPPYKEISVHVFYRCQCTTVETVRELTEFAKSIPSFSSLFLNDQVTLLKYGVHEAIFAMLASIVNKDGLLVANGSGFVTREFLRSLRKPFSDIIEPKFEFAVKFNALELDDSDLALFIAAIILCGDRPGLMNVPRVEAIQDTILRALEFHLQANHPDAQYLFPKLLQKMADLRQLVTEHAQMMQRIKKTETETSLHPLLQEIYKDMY

The target of test [2] is T2, Peroxisome proliferator-activated receptor gamma (Homo sapiens, UniProt P37231).
T2 sequence (P37231 whole entry): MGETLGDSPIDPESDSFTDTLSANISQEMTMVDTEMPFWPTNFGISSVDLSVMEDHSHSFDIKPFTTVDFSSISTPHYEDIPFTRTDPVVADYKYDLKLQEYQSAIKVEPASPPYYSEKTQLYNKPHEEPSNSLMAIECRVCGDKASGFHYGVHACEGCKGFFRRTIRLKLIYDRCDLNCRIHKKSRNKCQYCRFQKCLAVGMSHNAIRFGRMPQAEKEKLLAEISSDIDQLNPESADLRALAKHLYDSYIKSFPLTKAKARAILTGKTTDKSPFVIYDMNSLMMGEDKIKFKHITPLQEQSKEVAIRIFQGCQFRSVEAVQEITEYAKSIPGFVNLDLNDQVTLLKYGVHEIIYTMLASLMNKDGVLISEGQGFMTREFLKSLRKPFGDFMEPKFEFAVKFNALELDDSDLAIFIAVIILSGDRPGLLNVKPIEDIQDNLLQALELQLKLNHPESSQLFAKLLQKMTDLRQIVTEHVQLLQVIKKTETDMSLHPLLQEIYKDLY
The class given is cell-based, 293T. The settings on record: read-out: EC50.

Test [3] concerns the target T3, Peroxisome proliferator-activated receptor alpha (Homo sapiens, UniProt Q07869).
T3 sequence (Q07869 whole entry): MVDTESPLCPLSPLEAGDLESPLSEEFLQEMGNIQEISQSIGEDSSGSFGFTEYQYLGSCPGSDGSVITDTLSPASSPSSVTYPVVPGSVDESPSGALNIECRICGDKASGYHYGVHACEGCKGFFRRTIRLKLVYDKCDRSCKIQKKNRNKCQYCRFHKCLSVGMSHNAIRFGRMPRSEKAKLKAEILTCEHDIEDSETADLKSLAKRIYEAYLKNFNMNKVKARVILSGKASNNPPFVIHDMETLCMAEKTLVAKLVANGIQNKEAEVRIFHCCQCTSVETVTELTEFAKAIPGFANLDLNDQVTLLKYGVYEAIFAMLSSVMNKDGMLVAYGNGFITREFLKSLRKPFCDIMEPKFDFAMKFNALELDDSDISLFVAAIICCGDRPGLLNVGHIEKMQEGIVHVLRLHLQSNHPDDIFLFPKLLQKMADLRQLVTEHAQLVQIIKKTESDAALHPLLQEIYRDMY
Nature of the test: Agonist activity at human PPARalpha ligand binding domain expressed in human 293T cells co-transfected with Gal4-DBD by luciferase transactivation assay. In kind it is cell-based. The settings on record: read-out: EC50.

The EC50 is the concentration giving half of the maximal effect.

For the compound `CCCCOc1ccc(-c2nc(COc3ccc(OCC(=O)O)c(C)c3)sc2-c2ccc(OC(F)(F)F)cc2)cc1`, the figures for the EC50 in test [1], in test [2] and in test [3] were 0.026 µM, greater than 10 µM and greater than 10 µM, respectively.
For the compound `Cc1cc(OCc2nc(-c3ccc4[nH]c(=O)oc4c3)c(-c3ccc(OC(F)(F)F)cc3)s2)ccc1OCC(=O)O`, the values for the concentration for a half-maximal effect (EC50) in test [1], in test [2] and in test [3] were 0.544 µM, greater than 10 µM and greater than 10 µM, respectively.
Consider `COc1ccc(-c2nc(COc3ccc4c(CC(=O)O)cccc4c3)sc2-c2ccc(C(F)(F)F)cc2)cc1`, for which the concentration giving a half-maximal response (EC50) is 0.74 µM in test [1], greater than 10 µM in test [2] and greater than 10 µM in test [3].
Regarding `COc1ccc(-c2nc(SCc3ccc(OCC(=O)O)c(C)c3)sc2-c2ccc(OC)cc2)cc1`, the results for the EC50 in test [1], in test [2] and in test [3] were 5.67 µM, greater than 10 µM and greater than 10 µM, respectively.
As to `Cc1cc(OCc2nc(C)c(-c3ccc(Cl)cc3)s2)ccc1OCC(=O)O`, the values for the EC50 in test [1], in test [2] and in test [3] were 0.32 µM, greater than 10 µM and greater than 10 µM, respectively.
For `Cc1cc(OCc2nc(-c3ccc(N4CCOCC4)cc3)c(-c3ccc(OC(F)(F)F)cc3)s2)ccc1OCC(=O)O`, the EC50 was 0.045 µM in test [1], greater than 10 µM in test [2] and greater than 10 µM in test [3].
`CCCc1c(OCCCSc2ccc(CC(=O)O)cc2Cl)ccc2c(CC)noc12` [L-165461]: in test [3], the EC50 amounted to 1.3 µM.
Consider `COc1ccc(-c2nc(COc3ccc(OCC(=O)O)c(C)c3)sc2-c2ccc(C(F)(F)F)cc2)cc1`, for which the values for the EC50 in test [1], in test [2] and in test [3] were 0.04 µM, greater than 10 µM and greater than 10 µM, respectively.
Take `COc1ccc(-c2nc(COc3ccc(OCC(=O)O)c(C)c3)sc2-c2ccc(-c3ccccc3)cc2)cc1`: the concentration for a half-maximal effect (EC50) in test [1] was 0.01 µM; in test [2], greater than 10 µM; in test [3], greater than 10 µM.
As for `COc1ccc(-c2nc(COc3ccc(OCC(=O)O)c(C)c3)sc2-c2ccc(OC(F)(F)F)cc2)cc1F`, the concentration giving a half-maximal response (EC50) in test [1] was 0.056 µM; in test [2] it was greater than 10 µM; in test [3], greater than 10 µM.
`Cc1cc(OCc2nc(-c3cncnc3)c(-c3ccc(OC(F)(F)F)cc3)s2)ccc1OCC(=O)O`: the concentration giving a half-maximal response (EC50) in test [1] is 0.059 µM; in test [2], greater than 10 µM; in test [3], greater than 10 µM.
Take `COc1ccc(-c2nc(COc3ccc(OCC(=O)O)c(C)c3)sc2-c2ccccc2C(F)(F)F)cc1`: the half-maximal effective concentration (EC50) in test [1], in test [2] and in test [3] was greater than 10 µM each time.
For the compound `Cc1cc(OCc2cc(-c3ccc(C(F)(F)F)cc3)cc(-c3ccc(C(F)(F)F)cc3)c2)ccc1OCC(=O)O`, the 50% effective concentration (EC50) in test [2] and in test [3] was greater than 10 µM in each case.
Turning to `COc1ccc(-c2nc(COc3ccc(CC(=O)O)cc3)sc2-c2ccc(C(F)(F)F)cc2)cc1`, the 50% effective concentration (EC50) is 1.3 µM in test [1], greater than 10 µM in test [2] and greater than 10 µM in test [3].
On to `CCCc1ccc(-c2sc(COc3ccc(OCC(=O)O)c(C)c3)nc2-c2ccc(OC)cc2)cc1`, for which the results for the concentration giving a half-maximal response (EC50) in test [1], in test [2] and in test [3] were 0.51 µM, greater than 10 µM and greater than 10 µM, respectively.
For the compound `COc1ccc(-c2nc(COc3ccc(OCC(=O)O)c(C)c3)sc2-c2cccc3ccccc23)cc1`, the EC50 in test [1], in test [2] and in test [3] was greater than 10 µM each time.
Regarding `Cc1cc(OCc2nc(-c3ccc4c(c3)OCO4)c(-c3ccc(OC(F)(F)F)cc3)s2)ccc1OCC(=O)O`, the EC50 is 0.031 µM in test [1], greater than 10 µM in test [2] and greater than 10 µM in test [3].
With `COc1ccc(-c2nc(CSc3ccc(OCC(=O)O)c(C)c3)sc2-c2ccc(C(F)(F)F)cc2)cc1`, the values for the EC50 in test [1], in test [2] and in test [3] were 0.23 µM, greater than 10 µM and greater than 10 µM, respectively.
`COc1ccc(-c2nc(COc3ccc(OC(C)(C)C(=O)O)cc3)sc2-c2ccc(C(F)(F)F)cc2)cc1`: the EC50 in test [1] is 1.2 µM; in test [2], greater than 10 µM; in test [3], greater than 10 µM.
Regarding `COc1ccc(-c2nc(COc3ccc(OCC(=O)O)c(C)c3)oc2-c2cnc3ccccc3c2)cc1`, the EC50 in test [1] was 0.11 µM; in test [2] it was greater than 10 µM; in test [3] it was greater than 10 µM.
Turning to `Cc1cc(OCc2nc(-c3ccc(C(=O)N(C)C)cc3)c(-c3ccc(OC(F)(F)F)cc3)s2)ccc1OCC(=O)O`, the EC50 in test [1] was 0.023 µM; in test [2], greater than 10 µM; in test [3] it was greater than 10 µM.
With `Cc1cc(OCc2nc(-c3ccc(C(F)(F)F)cc3)cs2)ccc1OCC(=O)O`, the half-maximal effective concentration (EC50) is 1.39 µM in test [1], greater than 10 µM in test [2] and greater than 10 µM in test [3].
As to `COc1ccc(-c2nc(CSc3ccc(CC(=O)O)cc3Cl)sc2-c2ccc(C(F)(F)F)cc2)cc1`, the EC50 in test [1] was 0.062 µM; in test [2] it was greater than 10 µM; in test [3] it was greater than 10 µM.
As for `Cc1cc(OCc2nc(-c3cccnc3)c(-c3ccc(OC(F)(F)F)cc3)o2)ccc1OCC(=O)O`, the concentration giving a half-maximal response (EC50) in test [1] is 0.007 µM; in test [2] it was greater than 10 µM; in test [3], greater than 10 µM.
Regarding `O=C(O)Cc1cccc(-c2noc(-c3ccccc3)c2C(=O)NCCOc2cc(Cl)cc(Cl)c2)c1`, the EC50 in test [1] is 0.07 µM; in test [2], greater than 10 µM; in test [3], greater than 10 µM.
On to `Cc1cc(OCc2nc(-c3ccc(-c4ccccc4)cc3)c(-c3ccc(OC(F)(F)F)cc3)s2)ccc1OCC(=O)O`, for which the EC50 in test [1] was 0.16 µM; in test [2], greater than 10 µM; in test [3] it was greater than 10 µM.
For `COc1ccc(-c2nc(Sc3ccc(OCC(=O)O)c(C)c3)sc2-c2ccc(OC)cc2)cc1`, the values for the EC50 in test [1], in test [2] and in test [3] were 1.41 µM, greater than 10 µM and greater than 10 µM, respectively.
On to `Cc1cc(OCc2nc(-c3ccc(Cl)cc3)c(-c3ccc(Cl)cc3)s2)ccc1OCC(=O)O`, for which the EC50 is 0.51 µM in test [1], greater than 10 µM in test [2] and greater than 10 µM in test [3].
With `COc1ccc(-c2sc(COc3ccc(OCC(=O)O)c(C)c3)nc2-c2ccccc2)cc1`, the EC50 in test [1] is 2.62 µM; in test [2], greater than 10 µM; in test [3] it was greater than 10 µM.
As for `COc1ccc(-c2nc(COc3ccc(OCC(=O)O)c(C)c3)sc2-c2ccc(Cl)cc2)cc1`, the half-maximal effective concentration (EC50) in test [1] was 0.06 µM; in test [2], greater than 10 µM; in test [3], greater than 10 µM.
In the case of `COc1ccc(-c2nc(COc3ccc(OCC(=O)O)c(C)c3)sc2-c2ccc(OC)c(Cl)c2)cc1`, the values for the EC50 in test [1], in test [2] and in test [3] were 0.13 µM, greater than 10 µM and greater than 10 µM, respectively.
Turning to `Cc1cc(OCc2nc(-c3ccc(NS(C)(=O)=O)cc3)c(-c3ccc(OC(F)(F)F)cc3)s2)ccc1OCC(=O)O`, the 50% effective concentration (EC50) was 0.775 µM in test [1], greater than 10 µM in test [2] and greater than 10 µM in test [3].
For `Cc1cc(OCc2nc(-c3ccc(C(F)(F)F)cc3)c(-c3ccc(OC(F)(F)F)cc3)s2)ccc1OCC(=O)O`, the EC50 in test [1] is 0.331 µM; in test [2] it was greater than 10 µM; in test [3], greater than 10 µM.
As to `COc1ccc(-c2nc(COc3ccc(OCC(=O)O)c(C)c3)oc2-c2ccc(C(F)(F)F)cc2)cc1`, the EC50 in test [1] is 0.01 µM; in test [2] it was greater than 10 µM; in test [3], greater than 10 µM.
As for `Cc1cc(OCc2nc(-c3ccc4c(c3)OCCO4)c(-c3ccc(OC(F)(F)F)cc3)s2)ccc1OCC(=O)O`, the concentration for a half-maximal effect (EC50) is 0.017 µM in test [1], greater than 10 µM in test [2] and greater than 10 µM in test [3].
As for `COc1ccc(-c2nc(SCCCCOc3ccc(CC(=O)O)cc3Cl)sc2-c2ccc(OC)cc2)cc1`, the EC50 in test [2] stood at 2.56 µM.
Turning to `COc1ccc(-c2nc(COc3ccc(CC(=O)O)cc3Cl)sc2-c2ccc(OC)cc2)cc1`, the EC50 in test [2] was greater than 10 µM.
On the same count and under the same terms, the figure for `COc1ccc(-c2nc(SCc3ccc(CC(=O)O)cc3Cl)sc2-c2ccc(OC)cc2)cc1` is greater than 10 µM; for `COc1ccc(-c2nc(Sc3ccc(CC(=O)O)cc3Cl)sc2-c2ccc(OC)cc2)cc1` it is greater than 10 µM.
`COc1ccc(-c2nc(SCCOc3ccc(CC(=O)O)cc3Cl)sc2-c2ccc(OC)cc2)cc1`: the EC50 in test [2] was 5.87 µM.
The same measure, in the same setting: the figure for `COc1ccc(-c2nc(SCCCOc3ccc(CC(=O)O)cc3Cl)sc2-c2ccc(OC)cc2)cc1` is 4.61 µM.

For the origin of these results see ChEMBL document CHEMBL1153748 (J Med Chem, 2010).
